From ChEMBL document CHEMBL3991601, “The target landscape of clinical kinase drugs” (Science, 2017)
Blank lines part the entries; values can stand above or below the compound they belong to. Active and inactive are the calls of the source. For most assays here, no stated cut-off is given here; in the data, actives have a measured Kd and inactives only a lower limit.

How the values were obtained:
[1] = target: T1, Structural maintenance of chromosomes protein 1A (Homo sapiens, UniProt Q14683)
T1 sequence (Q14683 whole entry): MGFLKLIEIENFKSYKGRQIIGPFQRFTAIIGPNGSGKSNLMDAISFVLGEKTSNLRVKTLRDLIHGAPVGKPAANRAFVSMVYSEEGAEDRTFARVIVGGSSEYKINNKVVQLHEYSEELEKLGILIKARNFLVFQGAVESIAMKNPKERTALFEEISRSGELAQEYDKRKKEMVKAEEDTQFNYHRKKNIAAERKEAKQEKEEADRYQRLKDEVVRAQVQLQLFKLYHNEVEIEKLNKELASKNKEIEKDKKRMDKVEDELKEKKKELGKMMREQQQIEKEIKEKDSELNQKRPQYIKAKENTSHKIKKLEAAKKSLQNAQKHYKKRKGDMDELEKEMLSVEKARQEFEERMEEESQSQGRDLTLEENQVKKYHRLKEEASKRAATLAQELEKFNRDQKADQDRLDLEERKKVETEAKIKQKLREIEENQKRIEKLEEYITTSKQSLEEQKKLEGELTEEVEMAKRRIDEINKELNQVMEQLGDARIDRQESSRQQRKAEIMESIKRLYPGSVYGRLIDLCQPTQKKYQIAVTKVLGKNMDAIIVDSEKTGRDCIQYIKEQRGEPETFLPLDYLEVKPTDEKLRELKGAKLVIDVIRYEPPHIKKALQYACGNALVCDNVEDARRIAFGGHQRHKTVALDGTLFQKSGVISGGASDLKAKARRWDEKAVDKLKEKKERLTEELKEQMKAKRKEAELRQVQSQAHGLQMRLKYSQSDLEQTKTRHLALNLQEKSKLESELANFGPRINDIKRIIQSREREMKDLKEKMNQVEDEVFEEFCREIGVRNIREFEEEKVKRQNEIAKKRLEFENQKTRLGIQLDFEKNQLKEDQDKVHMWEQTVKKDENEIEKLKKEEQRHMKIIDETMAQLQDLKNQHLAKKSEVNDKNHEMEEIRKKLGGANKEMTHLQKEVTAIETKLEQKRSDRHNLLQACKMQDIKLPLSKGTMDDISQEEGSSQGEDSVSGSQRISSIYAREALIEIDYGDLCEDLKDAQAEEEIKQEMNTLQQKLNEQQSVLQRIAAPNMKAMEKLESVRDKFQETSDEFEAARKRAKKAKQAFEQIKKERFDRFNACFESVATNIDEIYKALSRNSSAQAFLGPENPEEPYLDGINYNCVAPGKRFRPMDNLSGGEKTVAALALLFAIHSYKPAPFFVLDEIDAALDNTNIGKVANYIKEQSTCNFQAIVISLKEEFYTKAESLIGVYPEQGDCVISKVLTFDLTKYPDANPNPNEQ

[2] = target: cAMP-dependent protein kinase type II-alpha regulatory subunit (Homo sapiens, UniProt P13861)
Sequence of cAMP-dependent protein kinase type II-alpha regulatory subunit (P13861 whole entry): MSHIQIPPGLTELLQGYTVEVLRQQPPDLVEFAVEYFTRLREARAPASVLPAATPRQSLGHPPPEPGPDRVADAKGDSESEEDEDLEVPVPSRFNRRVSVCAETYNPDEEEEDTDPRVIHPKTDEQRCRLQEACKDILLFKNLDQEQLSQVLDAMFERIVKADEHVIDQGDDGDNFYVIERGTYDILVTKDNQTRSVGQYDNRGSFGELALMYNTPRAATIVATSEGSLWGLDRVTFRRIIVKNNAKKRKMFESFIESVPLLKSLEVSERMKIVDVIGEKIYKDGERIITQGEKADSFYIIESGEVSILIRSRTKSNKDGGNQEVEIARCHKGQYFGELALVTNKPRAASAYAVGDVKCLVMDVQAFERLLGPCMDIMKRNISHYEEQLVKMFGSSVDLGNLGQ

[3] = target: T2, Activin receptor type-1 (Homo sapiens, UniProt Q04771)
T2 sequence (Q04771 whole entry): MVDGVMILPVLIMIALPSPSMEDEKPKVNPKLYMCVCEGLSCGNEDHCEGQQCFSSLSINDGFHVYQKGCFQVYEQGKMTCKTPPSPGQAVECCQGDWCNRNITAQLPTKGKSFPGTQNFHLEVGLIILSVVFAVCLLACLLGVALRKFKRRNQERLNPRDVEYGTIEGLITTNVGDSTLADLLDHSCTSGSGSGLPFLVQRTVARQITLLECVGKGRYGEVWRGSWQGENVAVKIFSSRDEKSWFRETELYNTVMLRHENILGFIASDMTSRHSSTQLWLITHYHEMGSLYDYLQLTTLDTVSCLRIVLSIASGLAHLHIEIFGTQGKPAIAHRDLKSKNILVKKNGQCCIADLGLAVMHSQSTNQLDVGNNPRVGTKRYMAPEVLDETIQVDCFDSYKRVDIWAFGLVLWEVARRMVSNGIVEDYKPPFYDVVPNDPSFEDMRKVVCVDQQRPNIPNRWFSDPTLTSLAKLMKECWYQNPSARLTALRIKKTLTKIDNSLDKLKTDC

[4] = target: Macrophage-stimulating protein receptor (Homo sapiens, UniProt Q04912)
Sequence of Macrophage-stimulating protein receptor (Q04912 25-304 limits assumed): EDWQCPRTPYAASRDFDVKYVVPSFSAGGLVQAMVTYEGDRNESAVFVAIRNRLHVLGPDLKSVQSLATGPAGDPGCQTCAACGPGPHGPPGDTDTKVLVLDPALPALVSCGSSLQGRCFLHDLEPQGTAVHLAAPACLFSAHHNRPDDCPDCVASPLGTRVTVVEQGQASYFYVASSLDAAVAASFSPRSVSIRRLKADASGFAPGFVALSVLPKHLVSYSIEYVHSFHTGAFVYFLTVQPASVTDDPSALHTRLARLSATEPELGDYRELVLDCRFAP
Sequence of Macrophage-stimulating protein receptor (Q04912 310-1400 limits assumed): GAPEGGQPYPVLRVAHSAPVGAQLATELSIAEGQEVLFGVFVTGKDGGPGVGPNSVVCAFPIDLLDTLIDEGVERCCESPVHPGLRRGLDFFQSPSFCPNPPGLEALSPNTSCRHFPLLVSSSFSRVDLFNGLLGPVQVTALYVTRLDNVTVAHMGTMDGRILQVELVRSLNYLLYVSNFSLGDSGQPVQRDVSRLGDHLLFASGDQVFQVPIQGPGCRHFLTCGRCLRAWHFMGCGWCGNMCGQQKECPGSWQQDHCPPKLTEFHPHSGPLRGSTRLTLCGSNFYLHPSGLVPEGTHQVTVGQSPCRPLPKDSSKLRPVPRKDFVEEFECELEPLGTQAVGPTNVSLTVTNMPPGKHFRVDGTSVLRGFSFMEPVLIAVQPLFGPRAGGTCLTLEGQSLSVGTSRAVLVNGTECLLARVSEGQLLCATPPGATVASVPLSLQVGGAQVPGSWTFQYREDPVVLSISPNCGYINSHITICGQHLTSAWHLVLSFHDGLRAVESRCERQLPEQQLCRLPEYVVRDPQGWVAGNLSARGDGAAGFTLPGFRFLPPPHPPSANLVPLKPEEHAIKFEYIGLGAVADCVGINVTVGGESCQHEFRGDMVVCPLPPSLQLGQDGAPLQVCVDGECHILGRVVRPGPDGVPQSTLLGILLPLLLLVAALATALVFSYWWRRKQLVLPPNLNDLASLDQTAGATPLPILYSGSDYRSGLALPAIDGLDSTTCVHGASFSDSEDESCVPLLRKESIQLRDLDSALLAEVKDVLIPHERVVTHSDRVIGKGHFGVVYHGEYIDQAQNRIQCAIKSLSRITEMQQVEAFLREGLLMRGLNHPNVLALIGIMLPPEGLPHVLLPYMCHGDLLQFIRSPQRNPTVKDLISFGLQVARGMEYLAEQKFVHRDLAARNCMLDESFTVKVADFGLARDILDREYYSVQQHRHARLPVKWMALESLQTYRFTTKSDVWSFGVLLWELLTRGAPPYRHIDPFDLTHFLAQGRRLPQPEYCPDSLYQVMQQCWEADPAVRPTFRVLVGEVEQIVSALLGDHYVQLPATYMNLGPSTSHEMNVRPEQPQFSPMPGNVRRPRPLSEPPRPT

[5] = target: T3, Serine/threonine-protein kinase D2 (Homo sapiens, UniProt Q9BZL6)
T3 sequence (Q9BZL6 whole entry): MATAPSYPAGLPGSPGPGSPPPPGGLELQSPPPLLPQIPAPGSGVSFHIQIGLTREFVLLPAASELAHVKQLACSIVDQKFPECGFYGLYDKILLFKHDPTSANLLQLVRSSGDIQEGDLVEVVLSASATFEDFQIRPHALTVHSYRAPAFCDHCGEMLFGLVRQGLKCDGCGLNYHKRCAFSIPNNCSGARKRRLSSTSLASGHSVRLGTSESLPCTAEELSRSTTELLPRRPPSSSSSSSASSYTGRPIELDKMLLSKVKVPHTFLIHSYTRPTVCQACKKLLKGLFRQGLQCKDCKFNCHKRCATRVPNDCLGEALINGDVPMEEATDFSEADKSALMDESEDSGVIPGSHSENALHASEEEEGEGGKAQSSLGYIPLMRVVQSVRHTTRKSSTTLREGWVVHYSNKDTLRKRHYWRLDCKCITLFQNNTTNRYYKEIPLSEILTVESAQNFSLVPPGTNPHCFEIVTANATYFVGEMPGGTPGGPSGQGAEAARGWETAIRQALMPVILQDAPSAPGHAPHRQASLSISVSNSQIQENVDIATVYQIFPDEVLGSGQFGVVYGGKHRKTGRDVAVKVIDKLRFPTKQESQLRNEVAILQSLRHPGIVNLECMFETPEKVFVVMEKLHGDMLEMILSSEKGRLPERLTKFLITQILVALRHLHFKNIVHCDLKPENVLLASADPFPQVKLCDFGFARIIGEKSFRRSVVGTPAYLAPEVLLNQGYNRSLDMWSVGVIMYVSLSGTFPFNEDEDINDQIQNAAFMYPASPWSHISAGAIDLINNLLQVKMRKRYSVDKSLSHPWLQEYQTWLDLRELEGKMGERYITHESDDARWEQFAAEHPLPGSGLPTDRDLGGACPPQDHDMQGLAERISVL

Structure (SMILES): Cn1cc(C2=C(c3cn(C4CCN(Cc5ccccn5)CC4)c4ccccc34)C(=O)NC2=O)c2ccccc21 [ENZASTAURIN]
Kd [1]: > 30 µM (inactive) | Kd [2]: > 30 µM (inactive)

Structure (SMILES): CC(=O)c1cnc2ccc(-c3cc(Cl)c(O)c(Cl)c3)nc2c1N[C@H]1CC[C@H](CN(C)C)CC1
Kd [1]: > 30 µM (inactive) | Kd [3]: 0.222 µM (active) | Kd [4]: 0.311 µM (active) | Kd [5]: 0.069 µM (active) | Kd [2]: > 30 µM (inactive)

Structure (SMILES): Cc1nc2cc(-n3ncc(C(=O)c4cc5ccccc5[nH]4)c3N)ccc2[nH]1 [FGFR INHIBITOR DEBIO 1347]
Kd [1]: > 30 µM (inactive) | Kd [3]: > 30 µM (inactive) | Kd [4]: > 30 µM (inactive) | Kd [5]: > 30 µM (inactive) | Kd [2]: > 30 µM (inactive)

Structure (SMILES): C[C@@H](N)c1ccc(C(=O)Nc2ccnc3[nH]ccc23)cc1 [Y-39983]
Kd [1]: > 30 µM (inactive) | Kd [3]: > 30 µM (inactive) | Kd [4]: > 30 µM (inactive) | Kd [5]: 0.572 µM (active)

Structure (SMILES): N#CC1(c2ccc(NC(=O)c3cccnc3NCc3ccncc3)cc2)CCCC1 [RIVOCERANIB]
Kd [1]: > 30 µM (inactive) | Kd [3]: > 30 µM (inactive) | Kd [4]: > 30 µM (inactive) | Kd [5]: > 30 µM (inactive) | Kd [2]: > 30 µM (inactive)

Structure (SMILES): CO[C@H]1C[C@@H]2CC[C@@H](C)[C@@](O)(O2)C(=O)C(=O)N2CCCC[C@H]2C(=O)O[C@H]([C@H](C)C[C@@H]2CC[C@@H](O)[C@H](OC)C2)CC(=O)[C@H](C)/C=C(\C)[C@@H](O)[C@@H](OC)C(=O)[C@H](C)C[C@H](C)/C=C/C=C/C=C/1C [SIROLIMUS]
Kd [1]: > 30 µM (inactive) | Kd [3]: > 30 µM (inactive) | Kd [4]: > 30 µM (inactive) | Kd [5]: > 30 µM (inactive) | Kd [2]: > 30 µM (inactive)

Structure (SMILES): Cc1cc(Nc2ncnc3ccc(NC4=NC(C)(C)CO4)cc23)ccc1Oc1ccn2ncnc2c1 [TUCATINIB]
Kd [1]: > 30 µM (inactive) | Kd [3]: > 30 µM (inactive) | Kd [4]: > 30 µM (inactive) | Kd [5]: > 30 µM (inactive) | Kd [2]: > 30 µM (inactive)

Structure (SMILES): O=C(Cc1ccc(-c2ccc(OCCN3CCOCC3)cc2)cn1)NCc1ccccc1 [TIRBANIBULIN]
Kd [1]: > 30 µM (inactive) | Kd [3]: > 30 µM (inactive) | Kd [4]: > 30 µM (inactive) | Kd [5]: > 30 µM (inactive) | Kd [2]: > 30 µM (inactive)

Structure (SMILES): NC1(c2ccc(-c3nc4ccn5c(=O)[nH]nc5c4cc3-c3ccccc3)cc2)CCC1 [MK-2206]
Kd [1]: > 30 µM (inactive) | Kd [3]: > 30 µM (inactive) | Kd [4]: > 30 µM (inactive) | Kd [5]: > 30 µM (inactive) | Kd [2]: > 30 µM (inactive)

Structure (SMILES): CC(=O)NCC(=O)N1[C@@H]2CC[C@H]1c1ccc(Nc3ncc(C(F)(F)F)c(NC4CCC4)n3)cc12 [PF-03814735]
Kd [1]: > 30 µM (inactive) | Kd [2]: > 30 µM (inactive)

Structure (SMILES): CCCCCCCCCCCCCCCCCCOP(=O)([O-])OC1CC[N+](C)(C)CC1 [PERIFOSINE]
Kd [1]: > 30 µM (inactive) | Kd [3]: > 30 µM (inactive) | Kd [4]: > 30 µM (inactive) | Kd [5]: > 30 µM (inactive)

Structure (SMILES): COc1ncc(-c2ccc3nccc(-c4ccnnc4)c3c2)cc1NS(=O)(=O)c1ccc(F)cc1F [OMIPALISIB]
Kd [1]: > 30 µM (inactive) | Kd [3]: > 30 µM (inactive) | Kd [4]: > 30 µM (inactive) | Kd [5]: > 30 µM (inactive) | Kd [2]: > 30 µM (inactive)

More lines, now with the values ahead:

Kd [1]: > 30 µM (inactive) | Kd [4]: > 30 µM (inactive) | Kd [2]: > 30 µM (inactive)
Structure (SMILES): CCn1cc(-c2ccnc3[nH]c(-c4cccc(CN(C)C)c4)cc23)c(-c2ccc(NC(=O)N(C)C)cc2)n1 [GSK-1070916]

Kd [1]: > 30 µM (inactive) | Kd [3]: 0.005 µM (active) | Kd [4]: 2.37 µM (active) | Kd [5]: 1.37 µM (active) | Kd [2]: > 30 µM (inactive)
Structure (SMILES): CC(C)c1cc(CNc2nc(Nc3cc(C4CC4)[nH]n3)cc(N3CCN(C)CC3)n2)on1 [XL-228]

Kd [1]: > 30 µM (inactive) | Kd [3]: > 30 µM (inactive) | Kd [4]: > 30 µM (inactive) | Kd [5]: > 30 µM (inactive) | Kd [2]: > 30 µM (inactive)
Structure (SMILES): Cc1cc(C(=O)NOCCO)c(Nc2ccc(I)cc2F)n(C)c1=O [AZD-8330]

Kd [3]: > 30 µM (inactive) | Kd [4]: > 30 µM (inactive) | Kd [5]: 6.41 µM (active) | Kd [2]: > 30 µM (inactive)
Structure (SMILES): Cn1cc(-c2cnn3c(N)c(Br)c([C@@H]4CCCNC4)nc23)cn1 [SCH-900776]
